Laboratory results published in US20240139165A1, “METHODS AND COMPOSITIONS FOR TREATMENT OF INFLAMMATORY BOWEL DISEASE” (SHENZHEN HIGHTIDE BIOPHARMACEUTICAL, LTD., priority 2017, published 2024).

Experiment: Single-dose pharmacokinetic study of berberine and fish oil in rats
Format: in vivo, male Sprague-Dawley (SD) rats
Settings: SD rats, single oral, BBR 100 mg/kg
Description: In the single-dose pharmacokinetic study in rats, after 7-day acclimation, healthy male Sprague-Dawley (SD) rats with the body weight of 210-250 g were randomized into six groups as follows (3 rats per group). Fish oil used in this study containing 47.8% (w/w) EPA-ethyl ester and 39.0% (w/w) DHA-ethyl ester. [table] The rats in each group were orally treated with the suspensions of the corresponding testing articles indicated above in 0.5% gum tragacanth respectively. Blood samples of the test animals were collected pre-dose and at the time points of 15 min, 30 min, 1 h, 1.5 h, 2 h, 4 h, 8 h, and 24 h post-dose. The collected blood samples (approximately 400 μL) were placed into tubes containing heparin sodium and centrifuged at 8000 rpm for 6 minutes at 4° C. to separate plasma. The obtained plasma from each sample was stored at −80° C. until being analyzed. Plasma concentrations of BBR and EPA were determined, and PK parameters were calculated.

Cmax of BBR: 4.23 ± 5.46 ng/mL
Ratio of AUC0-t of BBR compared to BBR group: 1.00
Ratio of Cmax of BBR compared to BBR group: 1.00
AUC(0-t) (male, Sprague-Dawley, rat, plasma, read-out: AUC0-t of BBR): 45.8 ± 60.1 ng·h/mL
SMILES: COc1ccc2cc3[n+](cc2c1OC)CCc1cc2c(cc1-3)OCO2 [BBR, 5,6-dihydro-9,10-dimethoxybenzo[g]-1,3-benzodioxolo[5,6-a]quinolizinium]
